Test results taken from EP4613271A1, “USE OF 1-METHYLNICOTINAMIDE IN PREPARATION OF ANTI-VASCULAR CALCIFICATION DRUG” (The Eight Affiliated Hospital, Sun Yat-Sen University, priority 2023, dated 2024).

Key:
[1] = test system: Human vascular smooth muscle cells; experiment: phosphorus-induced calcification of vascular smooth muscle cells (alizarin red staining, calcium content); assay type: cell-based; details: 100 µM 1-methylnicotinamide, 2.6 mM phosphorus, 7 days
Method: • 1. In this example, phosphorus was added to induce vascular calcification in vascular smooth muscle cells, and 1-methylnicotinamide or nicotinamide N-methyltransferase inhibitor (NNMTi) was added for intervention for 7 days, and then alizarin red staining was performed to evaluate the inhibitory effect of 1-methylnicotinamide on vascular calcification. The specific procedure was as follows. Human vascular smooth muscle cells of passages 8-12 were plated in a 12-well plate at 1×10^5/well, and 1 mL of DMEM complete medium was added to each well. On the first day after plating, 2.6 mM phosphorus was added to induce calcification, and 100 µM 1-methylnicotinamide or 25 µM nicotinamide N-methyltransferase inhibitor (NNMTi) was added for intervention. On the fourth day, the DMEM complete medium was replaced and 2.6 mM phosphorus was added to induce calcification again, and 100 µM 1-methylnicotinamide or 25 µM nicotinamide N-methyltransferase inhibitor (NNMTi) was added for intervention. […] After 7 days of intervention with 1-methylnicotinamide or nicotinamide N-methyltransferase inhibitor (NNMTi), a calcium content was determined. […]
(§1) Human vascular smooth muscle cells of passages 8-12 were plated in a 6-well plate at 2×10^5/well, and 2 mL of DMEM complete medium was added to each well. […] On the seventh day, the calcium content was determined.

[2] = test system: Human vascular smooth muscle cells; experiment: cisplatin (DDP) and phosphorus-induced calcification of vascular smooth muscle cells under aging conditions (alizarin red staining, calcium content); assay type: cell-based; details: 100 µM 1-methylnicotinamide, 2.6 mM phosphorus, 7 days
Method: 3. To further verify the effect of 1-methylnicotinamide in inhibiting vascular calcification under aging conditions, cisplatin (DDP) and phosphorus were added to induce calcification in vascular smooth muscle cells. After 7 days of intervention with 1-methylnicotinamide or nicotinamide N-methyltransferase inhibitor (NNMTi), alizarin red staining was performed to further evaluate the inhibitory effect of 1-methylnicotinamide on vascular calcification under aging conditions. The specific procedure was as follows.
Human vascular smooth muscle cells of passages 8-12 were plated in a 12-well plate at 1×10^5/well, and 1 mL of DMEM complete medium was added to each well. On the first day after plating, 2.6 mM phosphorus was added to induce calcification, and 100 µM 1-methylnicotinamide or 25 µM nicotinamide N-methyltransferase inhibitor (NNMTi) was added for intervention. […]
4. Cisplatin and phosphorus were added to induce calcification in vascular smooth muscle cells, and 1-methylnicotinamide or nicotinamide N-methyltransferase inhibitor (NNMTi) was added for intervention for 7 days, and then the calcium content was determined. […]
as §1

[3] = test system: Human vascular smooth muscle cells; experiment: bleomycin (BLM) and phosphorus-induced calcification of vascular smooth muscle cells under aging conditions (alizarin red staining, calcium content); assay type: cell-based; details: 100 µM 1-methylnicotinamide, 2.6 mM phosphorus, 1 µg/mL bleomycin, 7 days
Method: • 1. In this example, bleomycin (BLM) and phosphorus were added to induce vascular calcification in vascular smooth muscle cells, and 1-methylnicotinamide or nicotinamide N-methyltransferase inhibitor (NNMTi) was added for intervention for 7 days, and then alizarin red staining was performed to evaluate the inhibitory effect of 1-methylnicotinamide on vascular calcification. The specific procedure was as follows. Human vascular smooth muscle cells of passages 8-12 were plated in a 12-well plate at 1×10^5/well, and 1 mL of DMEM complete medium was added to each well. On the first day after plating, 2.6 mM phosphorus was added to induce calcification, and 100 µM 1-methylnicotinamide or 25 µM nicotinamide N-methyltransferase inhibitor (NNMTi) was added for intervention. […] After 7 days of intervention with 1-methylnicotinamide or nicotinamide N-methyltransferase inhibitor (NNMTi), a calcium content was determined. […]
as §1

[4] = test system: Naturally aged C57BL/6 mice; experiment: high-calcium and high-adenine diet-induced vascular calcification in aged mice (aorta alizarin red staining, IHC of aortic rings); assay type: in vivo; details: 2.5 months, 25 months old mice
Method: • 1. In this example, a high-calcium and high-adenine diet was used to induce vascular calcification in aged mice. After intervention by using 1-methylnicotinamide for 2.5 months, alizarin red staining was performed on the aorta of the mice to evaluate the inhibitory effect of 1-methylnicotinamide on vascular calcification in aged mice. The specific procedure was as follows.
Naturally aged C57BL/6 mice (25 months old) were randomly divided into a control group (n=10), a high-calcium and high-adenine group (n=10), and a high-calcium and high-adenine + 1-methylnicotinamide group (100 mg/kg/day) (n=10), and were fed with normal feed, high-calcium and high-adenine feed, and high-calcium and high-adenine feed and 1-methylnicotinamide respectively, and water is normally provided for each group. The mice were killed after 2.5 months, and the aortas of the mice were obtained for alizarin red staining.
2. To further verify the effect of 1-methylnicotinamide in inhibiting vascular calcification in aged mice, a high-calcium and high-adenine diet was used to induce vascular calcification in aged mice. After 2.5 months of intervention with 1-methylnicotinamide, the IHC staining was performed on α-smooth muscle actin (α-SMA) and bone morphogenetic protein 2 (BMP2) in mouse aortic rings to further evalaute the inhibitory effect of 1-methylnicotinamide on vascular calcification in aged mice. […]

C[n+]1cccc(C(N)=O)c1 [1-methylnicotinamide]
alizarin red staining ([1]; Fig. 1): could significantly inhibit the occurrence of vascular calcification | calcium content ([1]; Fig. 2): had the effect of inhibiting vascular calcification | calcium content ([2]; 1 µM cisplatin, Panel D of Fig. 3): had the effect of inhibiting vascular calcification under aging conditions | alizarin red staining ([2]; 1 µg/mL cisplatin, Panel C of Fig. 3): could significantly inhibit the calcification of cisplatin-induced aged vascular smooth muscle cells | alizarin red staining ([3]; Panel A of Fig. 3): could significantly inhibit the calcification of bleomycin-induced aged vascular smooth muscle cells | calcium content ([3]; Panel B of Fig. 3): had the effect of inhibiting vascular calcification under aging conditions | alizarin red staining of the aorta ([4]; 100 mg/kg/day 1-methylnicotinamide with high-calcium and high-adenine feed, Panel A of Fig. 4): could significantly inhibit vascular calcification in aged mice | IHC staining of α-SMA and BMP2 in aortic rings ([4]; 1-methylnicotinamide with high-calcium and high-adenine feed, Panel B of Fig. 4): could significantly inhibit vascular calcification in aged mice
